Test results published in patent US20250313546A1, “NUCLEIC ACID BINDERS” (UNIVERSITY OF STRATHCLYDE, priority 2022, published 2025).
pIC50: −log10 of the molar value. Converted amounts (≈) assume the structure as drawn.

What was measured:
[1] = system: Staphylococcus aureus (ATCC 43300); assay: Antibacterial MIC, broth microdilution (CLSI); format: cell-based; conditions: for S. aureus Selectivity Indices, Group: Alkyl Amidines and NH Pyrroles; for MIC80: Staphylococcus aureus, ATCC43300, read-out: MIC80 S. aureus
[2] = system: Enterococcus faecalis (ATCC 51299); assay: Antibacterial MIC, broth microdilution (CLSI); format: cell-based; conditions: for MIC80: Enterococcus faecalis, ATCC51299, read-out: MIC80 E. faecalis; for E. faecalis Selectivity Indices, Group / E. faecalis Selectivity Index (SI): SI, IC50 (μM)/MIC80 (μM), HEK293 cytotoxicity; for E. faecalis Selectivity Indices, Group: Alkyl Amidines and NH Pyrroles; for E. faecalis Selectivity Index (SI): numeric value
[3] = system: Escherichia coli (ATCC 25922); assay: Antibacterial MIC, broth microdilution (CLSI); format: cell-based; conditions: Escherichia coli, ATCC25922; read-out: MIC80 E. coli
[4] = system: Human rhinovirus (HRV-14); assay: Viral ToxGlo assay, Hela Ohio cells; format: cell-based; conditions: M-HeLa, 72 h
[5] = system: human respiratory syncytial virus (RSV A2); assay: Viral ToxGlo assay, Hep-2 cells; format: cell-based; conditions: 72 h
Influenza (H1N1) = assay: Accelerated Viral Neuraminidase Inhibition Assay (AVINA), A549 cells; format: cell-based; conditions: Influenza A virus, 72 h
[6] = system: Genomic double stranded DNA (salmon); assay: Fluorescence intercalator displacement (FID) assay, SYBR-safe probe; conditions: 20 μM compound, 30° C., lower % = stronger binding
Outline: (§1)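 Compound at 20 μM mixed with 3.76 ng/mL polyAU dsRNA or salmon genomic dsDNA and 12500-fold diluted SybrSafe in 1 mM phosphate buffer pH 7.4, then heated to 30 °C and fluorescence read. Reduction is expressed as normalised %, with nucleic acid plus probe as maximum and probe alone as minimum.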

[7] = system: PolyAU double stranded RNA; assay: as above; conditions: 20 μM compound, 30° C., lower % = stronger binding
Outline: as §1

C. neoformans (F10025) = conditions: Cryptococcus neoformans, read-out: MIC99 C. neoformans
Procedure: (§2) The Minimum Inhibitory Concentration (MIC, at 99% inhibition) of the compounds was determined using the broth microdilution method as recommended by EUCAST (EUCAST Definitive Document E.DEF 9.3.2, Method for the determination of broth dilution minimum inhibitory concentrations of antifungal agents for conidia forming moulds and EUCAST Definitive Document E.DEF 7.3.2 Method for the determination of broth dilution minimum inhibitory concentrations of antifungal agents for yeasts).

[8] = system: A. fumigatus A1160 (MFIG001); conditions: Aspergillus fumigatus, read-out: MIC99 A. fumigatus A1160
Procedure: as §2

[9] = system: Rhizopus arrhizus (NEQAS12.35321); conditions: read-out: MIC99 Rhizopus arrhizus
Procedure: as §2

Candida auris (H.17.157) = conditions: for MIC99: Candidozyma auris, read-out: MIC99 Candida auris; for C. auris Selectivity Indices, Group: Alkyl Amidines and NH Pyrroles
Procedure: as §2

[10] = system: Candida glabrata (ACPF3309); conditions: for MIC99: Nakaseomyces glabratus, read-out: MIC99 Candida glabrata; for C. glabrata Selectivity Indices, Group: Alkyl Amidines and NH Pyrroles
T. equiperdum = assay: Resazurin-based (Alamar blue) drug sensitivity assay; conditions: Trypanosoma equiperdum, read-out: IC50 T. equiperdum
Procedure: A detailed description of the procedure for evaluating activity against trypanosomes, using an Alamar Blue (resazurin) assay, is described below.
The bloodstream form (BSF) T. b. brucei s427 (see De Koning, H. P. et al., Mol. Biochem. Parasitol. 2000, 106, 181-185), T. evansi AntTat 3/3 (see Dean, S. et al., Proc. Natl. Acad. Sci. USA, 2013, 110, 14741-14746), and T. equiperdum (see Stewart, M. L. et al., Eukaryot. Cell, 2010, 9, 336-343) were cultured in HMI-9 medium (Life Technologies, Paisley, United Kingdom) supplemented with 10% heat inactivated Foetal Bovine Serum (FBS (PAA Laboratories Linz, Austria)), 14 μL/L β-mercaptoethanol (BDH, Dorset, UK), and 3.0 g/L NaHCO3 (Sigma-Aldrich) and adjusted to pH 7.4. These cell lines were maintained at 37° C. in a humidified, 5% CO2 environment.
A resazurin-based (Alamar blue) drug sensitivity assay was used to assess and compare the activity of standard trypanocides in the different cell lines investigated (see Gould, M. K. et al., Anal. Biochem., 2008, 382, 87-93). Briefly, 23 doubling dilutions of the test compound of the invention, starting at 100 μM, and a compound-free control were prepared in 100 μL medium in a 96-well white plate (Greiner Bio-one, Frickenhausen, Germany). The cells were adjusted to 2×10^4 cells/mL for T. b. brucei and T. equiperdum; 4×10^4 cells/mL for T. evansi; and 5×10^5 cells/mL for T. congolense in the appropriate medium. 100 μL of the adjusted cells was then added to the wells containing drug dilutions and incubated for 48 h under respective culture condition. Thereafter, 20 μL of 125 mg/mL resazurin sodium dye was added, and the plate was incubated for a further 24 h.

T. evansi AntTat 3/3 = assay: as above; conditions: read-out: IC50 T. evansi
[11] = system: SARS-CoV-2 (hCoV-19/Australia/VIC01/2020); assay: SARS-CoV-2 microplaque inhibition assay in Vero-E6 cells; format: cell-based; conditions: for pIC50: Severe acute respiratory syndrome coronavirus 2, Vero C1008, plaque inhibition, Vero-E6 cells, read-out: IC50 SARS-CoV-2
C. albicans (ATCC 90028) = conditions: Candida albicans, ATCC90028, read-out: MIC99 C. albicans
[12] = system: Scedosporium prolificans (F2746); conditions: Lomentospora prolificans, read-out: MIC99 Scedosporium prolificans
Procedure: as §2

A. flavus (CBS 128.202) = conditions: Aspergillus flavus, CBS128, read-out: MIC99 A. flavus
[13] = system: Fusarium oxysporum (F7098); conditions: read-out: MIC99 Fusarium oxysporum
Procedure: as §2

T. vaginalis = assay: Trichomonas resorufin assay; format: cell-based
[14] = SI, IC50 (μM)/MIC80 (μM), HEK293 cytotoxicity
[15] = SI, IC50 (μM)/MIC99 (μg/mL), HEK293 cytotoxicity
[16] = SI, IC50 (μM)/MIC99 (μg/mL), HEK293 cytotoxicity, numeric value
[17] = SI, IC50 (μM)/IC50 (μM), HEK293 cytotoxicity, Alkyl Amidines and NH Pyrroles

Structure (SMILES)	S. aureus Selectivity Indices, Group [1, 14]	MIC80 [1] [µM]	MIC80 [2] [µM]	MIC80 [3] [µM]	inhibition at 20 µM [4] [%]	inhibition at 20 µM [5] [%]	inhibition at 20 µM (Influenza (H1N1)) [%]	% Normalised Fluorescence with gDNA [6] [%]	% Normalised Fluorescence with polyAU RNA [7] [%]	MIC99 (C. neoformans (F10025)) [µg/mL]	MIC99 [8] [µg/mL]	MIC99 [9] [µg/mL]	MIC99 (Candida auris (H.17.157)) [µg/mL]	MIC99 [10] [µg/mL]	pIC50 (T. equiperdum)	pIC50 (T. evansi AntTat 3/3)	pIC50 [11]	MIC99 (C. albicans (ATCC 90028)) [µg/mL]	MIC99 [12] [µg/mL]	MIC99 (A. flavus (CBS 128.202)) [µg/mL]	further results
N=C(N)CCNC(=O)c1cc(NC(=O)c2cc(NC(=O)c3ccc(/C=C/c4cnc5ccccc5c4)cc3)c[nH]2)c[nH]1 [IIIa6, (E)-N-(3-amino-3-iminopropyl)-4-(4-(4-(2-(quinolin-3-yl)vinyl)benzamido)-1H-pyrrole-2-carboxamido)-1H-pyrrole-2-carboxamide]	D (D: SI > 10)	< 5	< 5	25 to 100 (≈ 14 to 56.1 µg/mL)	> 50	> 50	> 50	18	29	< 5	5 to 25 (≈ 8.92 to 44.6 µM)	25 to 50 (≈ 44.6 to 89.2 µM)	5 to 25 (≈ 8.92 to 44.6 µM)	< 5	> 8.00	7.00 to 8.00	–	–	–	–	S. aureus Selectivity Index (SI) ([1]; SI, IC50 (μM)/MIC80 (μM), HEK293 cytotoxicity, numeric value): 14; E. faecalis Selectivity Indices, Group [2]: D (D: SI > 10); E. faecalis Selectivity Index (SI) [2]: 14; C. auris Selectivity Indices, Group (Candida auris (H.17.157); [15]): D (Group D SI > 3); C. glabrata Selectivity Indices, Group [10, 15]: D (Group D: SI > 50); C. glabrata Selectivity Index (SI) [10, 16]: 109
C/N=C(/CCNC(=O)c1cc(NC(=O)c2cc(NC(=O)c3ccc(/C=C/c4nc5ccccc5s4)cc3)cn2C)cn1C)NC [Ia11, 4-(4-((E)-2-(benzo[d]thiazol-2-yl)vinyl)benzamido)-1-methyl-N-(1-methyl-5-(((Z)-3-(methylamino)-3-(methylimino)propyl)carbamoyl)-1H-pyrrol-3-yl)-1H-pyrrole-2-carboxamide]	–	5 to 25 (≈ 3.11 to 15.6 µg/mL)	> 100	> 100	–	–	–	–	–	< 5	5 to 25 (≈ 8.03 to 40.1 µM)	5 to 25 (≈ 8.03 to 40.1 µM)	> 50	< 5	–	–	4.49 to 5.10	5 to 25 (≈ 8.03 to 40.1 µM)	5 to 25 (≈ 8.03 to 40.1 µM)	–	–
CN(C)c1ccc(/C=C/c2ccc(C(=O)Nc3c[nH]c(C(=O)Nc4cc(C(=O)NCCC(=N)N)n(C)c4)c3)cn2)cc1 [IIIa5, (E)-N-(5-((5-((3-amino-3-iminopropyl)carbamoyl)-1-methyl-1H-pyrrol-3-yl)carbamoyl)-1H-pyrrol-3-yl)-6-(4-(dimethylamino)styryl)nicotinamide]	C (Group C: 5 < SI <= 10)	< 5	5 to 25 (≈ 2.84 to 14.2 µg/mL)	> 100	> 50	–	25 to 50	11	3	–	5 to 25 (≈ 8.81 to 44 µM)	5 to 25 (≈ 8.81 to 44 µM)	5 to 25 (≈ 8.81 to 44 µM)	5 to 25 (≈ 8.81 to 44 µM)	6.00 to 7.00	–	> 5.70	< 5	–	5 to 25 (≈ 8.81 to 44 µM)	SARS-CoV-2 Selectivity Indices, Group [11, 17]: D (Group D: SI > 25); SARS-CoV-2 Selectivity Index (SI) ([11]; SI, IC50 (μM)/IC50 (μM), HEK293 cytotoxicity, numeric value): 39; C. auris Selectivity Indices, Group (Candida auris (H.17.157); [15]): D (Group D SI > 3); C. auris Selectivity Index (SI) (Candida auris (H.17.157); [16]): 5
Cn1cc(NC(=O)c2ccc(/C=C/c3ccc4nonc4c3)cc2)cc1C(=O)Nc1c[nH]c(C(=O)NCCC(=N)N)c1 [IIIa3, (E)-N-(5-((3-amino-3-iminopropyl)carbamoyl)-1H-pyrrol-3-yl)-4-(4-(2-(benzo[c][1,2,5]oxadiazol-5-yl)vinyl)benzamido)-1-methyl-1H-pyrrole-2-carboxamide]	B (Group B: 3 < SI <= 5)	5 to 25 (≈ 2.83 to 14.1 µg/mL)	5 to 25 (≈ 2.83 to 14.1 µg/mL)	> 100	25 to 50	> 50	> 50	27	3	< 5	5 to 25 (≈ 8.84 to 44.2 µM)	> 50	> 50	< 5	7.00 to 8.00	7.00 to 8.00	–	–	–	–	C. glabrata Selectivity Indices, Group [10, 15]: B (Group B: 12 < SI <= 20)
C/N=C(/CCNC(=O)c1cc(NC(=O)c2cc(NC(=O)c3ccc(/C=C/c4ccc5nonc5c4)cc3)cn2C)cn1C)NC [Ia6, 4-(4-((E)-2-(benzo[c][1,2,5]oxadiazol-5-yl)vinyl)benzamido)-1-methyl-N-(1-methyl-5-(((Z)-3-(methylamino)-3-(methylimino)propyl)carbamoyl)-1H-pyrrol-3-yl)-1H-pyrrole-2-carboxamide]	–	< 5	< 5	> 100	–	–	–	3	6	< 5	< 5	5 to 25 (≈ 8.23 to 41.1 µM)	> 50	< 5	–	–	–	< 5	< 5	< 5	MIC99 [13]: < 5 µg/mL
CC/N=C(\N)CCNC(=O)c1cc(NC(=O)c2cc(NC(=O)c3ccc(/C=C/c4ccc5nonc5c4)cc3)cn2C)cn1C [Ia12, N—((Z)-3-amino-3-(ethylimino)propyl)-4-(4-(4-((E)-2-(benzo[c][1,2,5]oxadiazol-5-yl)vinyl)benzamido)-1-methyl-1H-pyrrole-2-carboxamido)-1-methyl-1H-pyrrole-2-carboxamide]	C (Group C: 5 < SI <= 10)	5 to 25 (≈ 3.04 to 15.2 µg/mL)	< 5	> 100	10 to 25	> 50	> 50	2	2	5 to 25 (≈ 8.23 to 41.1 µM)	> 50	–	–	5 to 25 (≈ 8.23 to 41.1 µM)	6.00 to 7.00	6.00 to 7.00	4.49 to 5.10	–	–	–	E. faecalis Selectivity Indices, Group [2]: D (D: SI > 10); E. faecalis Selectivity Index (SI) [2]: 23; T. vaginalis Selectivity Indices, Group (T. vaginalis; [17]): B (Group B: 8 < SI <= 16); pIC50 (T. vaginalis; Trichomonas vaginalis, read-out: IC50 T. vaginalis): 5.30 to 6.00
CN(C)c1ccc(/C=C/c2ccc(C(=O)Nc3cc(C(=O)Nc4c[nH]c(C(=O)NCCN5CCOCC5)c4)n(C)c3)cn2)cc1 [IIIb3, (E)-6-(4-(dimethylamino)styryl)-N-(1-methyl-5-((5-((2-morpholinoethyl)carbamoyl)-1H-pyrrol-3-yl)carbamoyl)-1H-pyrrol-3-yl)nicotinamide]	–	< 5	> 100	> 100	–	–	–	31	39	> 50	25 to 50 (≈ 40.9 to 81.9 µM)	> 50	> 50	> 50	–	–	–	> 50	> 50	> 50	MIC99 [13]: > 50 µg/mL
